Test results as given in patent US7709482B2, “Polycyclic heteroaryl substituted triazoles useful as Axl inhibitors” (Rigel Pharmaceuticals, Inc., priority 2006, dated 2010).
pIC50: −log10 of the molar value.

Target: T1, Axl (Homo sapiens, UniProt P30530)
T1 construct: endogenous in cells; host or cells: HeLa cells
T1 sequence (P30530 26-894): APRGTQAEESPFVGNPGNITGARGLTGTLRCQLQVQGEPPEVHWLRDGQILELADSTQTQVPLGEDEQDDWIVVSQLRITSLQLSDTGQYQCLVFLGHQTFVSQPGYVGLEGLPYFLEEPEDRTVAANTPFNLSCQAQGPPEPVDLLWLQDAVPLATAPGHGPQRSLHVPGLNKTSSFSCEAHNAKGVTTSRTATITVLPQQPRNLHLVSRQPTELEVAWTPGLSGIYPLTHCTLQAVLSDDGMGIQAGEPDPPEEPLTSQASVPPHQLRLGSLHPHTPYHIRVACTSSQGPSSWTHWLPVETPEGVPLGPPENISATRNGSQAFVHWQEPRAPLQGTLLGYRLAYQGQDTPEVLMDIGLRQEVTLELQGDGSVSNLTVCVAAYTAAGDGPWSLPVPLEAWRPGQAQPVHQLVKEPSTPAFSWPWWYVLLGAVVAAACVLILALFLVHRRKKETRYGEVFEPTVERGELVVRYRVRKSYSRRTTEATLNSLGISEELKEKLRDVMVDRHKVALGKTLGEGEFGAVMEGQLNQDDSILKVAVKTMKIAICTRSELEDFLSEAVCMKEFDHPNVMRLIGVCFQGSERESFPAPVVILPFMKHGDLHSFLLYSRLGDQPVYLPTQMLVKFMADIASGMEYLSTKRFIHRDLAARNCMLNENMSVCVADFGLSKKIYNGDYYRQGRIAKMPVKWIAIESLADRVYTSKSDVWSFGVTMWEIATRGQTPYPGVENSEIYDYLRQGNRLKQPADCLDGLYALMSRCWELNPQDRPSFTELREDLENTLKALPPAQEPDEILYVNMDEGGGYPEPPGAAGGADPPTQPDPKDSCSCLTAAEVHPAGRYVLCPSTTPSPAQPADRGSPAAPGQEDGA
Assay: Phospho-Akt In-Cell Western Assay (inhibition of Axl activity after Axl-antibody cross-linking)
Type: cell-based
Settings: Hela cells, phospho-Akt chemiluminescence normalized to relative cell number; compounds of formula (Ia), Table 1; read-out: IC50
Procedure, shortened: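 Phospho-Akt was detected in formaldehyde-fixed cells by in-cell immunostaining with HRP chemiluminescence. Before fixation, HeLa cells kept 24 h in low-serum medium containing 500 ng/mL Axl/Fc received compound for 1 h at 37 °C, followed by 5-min Axl activation through antibody clustering.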

CC(C)N1CCN(Cc2ccc(Nc3nc(N)n(-c4cc5c(nn4)-c4ccccc4CCC5)n3)cc2)CC1 [Compound 108, 1-(6,7-dihydro-5H-benzo[6,7]cyclohepta[1,2-c]pyridazin-3-yl)-N^3-(4-((4-isopropylpiperazinyl)methyl)-phenyl)-1H-1,2,4-triazole-3,5-diamine] and CC(C)N1CCN(c2ccc(Nc3nc(N)n(-c4cc5c(nn4)-c4ccccc4CCC5)n3)cc2F)CC1 [Compound 111, 1-(6,7-dihydro-5H-benzo[6,7]cyclohepta[1,2-c]pyridazin-3-yl)-N^3-(3-fluoro-4-(N-isopropylpiperazin-1-yl)phenyl)-1H-1,2,4-triazole-3,5-diamine] cannot be ordered by pIC50: over 6.00 for the first, over 6.00 for the second.

CN1CCC(N2CCN(c3ccc(Nc4nc(N)n(-c5cc6c(nn5)-c5ccccc5CCC6)n4)cc3F)CC2)CC1 [Compound 109, 1-(6,7-dihydro-5H-benzo[6,7]cyclohepta[1,2-c]pyridazin-3-yl)-N^3-(3-fluoro-4-(4-N-methylpiperidin-4-ylpiperazinyl)phenyl)-1H-1,2,4-triazole-3,5-diamine] and Cc1cc(Nc2nc(N)n(-c3cc4c(nn3)-c3ccccc3CCC4)n2)ccc1N1CCC(N2CCN(C)CC2)CC1 [Compound 114, 1-(6,7-dihydro-5H-benzo[6,7]cyclohepta[1,2-c]pyridazin-3-yl)-N^3-(3-methyl-4-(4-(N-methylpiperazin-4-yl)piperidin-1-yl)phenyl)-1H-1,2,4-triazole-3,5-diamine] cannot be ordered by pIC50: over 6.00 for the first, over 6.00 for the second.

CN1CCC2(CCN(c3ccc(Nc4nc(N)n(-c5cc6c(nn5)-c5ccccc5CCC6)n4)cc3F)C2)C1 (stereo not shown) [Compound 110, 1-(6,7-dihydro-5H-benzo[6,7]cyclohepta[1,2-c]pyridazin-3-yl)-N^3-(3-fluoro-4-(7-methyl-2,7-diazaspiro[4.4]nonan-2-yl)phenyl)-1H-1,2,4-triazole-3,5-diamine] and Nc1nc(Nc2ccc(N3CC(N4CCCC4)C3)c(F)c2)nn1-c1cc2c(nn1)-c1ccccc1CCC2 [Compound 113, 1-(6,7-dihydro-5H-benzo[6,7]cyclohepta[1,2-c]pyridazin-3-yl)-N^3-(3-fluoro-4-(3-pyrrolidin-1-ylazetidinyl)phenyl)-1H-1,2,4-triazole-3,5-diamine] cannot be ordered by pIC50: over 6.00 for the first, over 6.00 for the second.

Compared with Nc1nc(Nc2ccc(N3CC[C@@H](CN4CCCC4)C3)c(F)c2)nn1-c1cc2c(nn1)-c1ccccc1CCC2 [Compound 115, 1-(6,7-dihydro-5H-benzo[6,7]cyclohepta[1,2-c]pyridazin-3-yl)-N^3-(3-fluoro-4-((S)-3-(pyrrolidin-1-ylmethyl)pyrrolidinyl)phenyl)-1H-1,2,4-triazole-3,5-diamine], Nc1nc(Nc2ccc(N3CCC(CN4CCCC4)CC3)c(F)c2)nn1-c1cc2c(nn1)-c1ccccc1CCC2 [Compound 124, 1-(6,7-dihydro-5H-benzo[6,7]cyclohepta[1,2-c]pyridazin-3-yl)-N^3-(3-fluoro-4-(4-(pyrrolidinylmethyl)-piperidinyl)phenyl)-1H-1,2,4-triazole-3,5-diamine] is higher in pIC50: 5.00 to 6.00 for the first, over 6.00 for the second. The second is the more potent here.

First: Nc1nc(Nc2ccc(N3CCC(N4CCCC4)CC3)cc2)nn1-c1cc2c(nn1)-c1ccccc1OCC2 [Compound 116, 1-(6,7-dihydro-5H-benzo[2,3]oxepino[4,5-c]pyridazin-3-yl)-N^3-(4-(4-pyrrolidin-1-ylpiperidinyl)phenyl)-1H-1,2,4-triazole-3,5-diamine]
Second: Nc1nc(Nc2ccc(N3CCC(N4CCCC4)CC3)cc2)nn1-c1cc2c(nn1)-c1ccccc1SCC2 [Compound 120, 1-(6,7-dihydro-5H-benzo[2,3]thiepino[4,5-c]pyridazin-3-yl)-N^3-(4-(4-pyrrolidin-1-ylpiperidinyl)phenyl)-1H-1,2,4-triazole-3,5-diamine]
The pIC50 of the first is lower: 5.00 to 6.00 for the first, over 6.00 for the second.

Nc1nc(Nc2ccc(N3CCC(N4CCCC4)CC3)c(F)c2)nn1-c1cc2c(nn1)-c1ccccc1OCC2 [Compound 117, 1-(6,7-dihydro-5H-benzo[2,3]oxepino[4,5-c]pyridazin-3-yl)-N^3-(3-fluoro-4-(4-pyrrolidin-1-ylpiperidinyl)phenyl)-1H-1,2,4-triazole-3,5-diamine] and Nc1nc(Nc2ccc(N3CCC(N4CCCC4)CC3)c(F)c2)nn1-c1cc2c(nn1)-c1ccccc1SCC2 [Compound 119, 1-(6,7-dihydro-5H-benzo[2,3]thiepino[4,5-c]pyridazin-3-yl)-N^3-(3-fluoro-4-(4-pyrrolidin-1-ylpiperidinyl)phenyl)-1H-1,2,4-triazole-3,5-diamine] cannot be ordered by pIC50: over 6.00 for the first, over 6.00 for the second.

Compared with Nc1nc(Nc2ccc3oc(CN4CCCC4)nc3c2)nn1-c1cc2c(nn1)-c1ccccc1OCC2 [Compound 118, 1-(6,7-dihydro-5H-benzo[2,3]oxepino[4,5-c]pyridazin-3-yl)-N^3-(2-(pyrrolidin-1-ylmethyl)benzo[d]oxazol-5-yl)-1H-1,2,4-triazole-3,5-diamine], CN(C)CCN1CCOc2cc(Nc3nc(N)n(-c4cc5c(nn4)-c4ccccc4OCC5)n3)ccc21 [Compound 122, 1-(6,7-dihydro-5H-benzo[2,3]oxepino[4,5-c]pyridazin-3-yl)-N^3-(4-(2-dimethylaminoethyl)-(3,4-dihydro-2H-benzo[b][1,4]oxazin-7-yl))-1H-1,2,4-triazole-3,5-diamine] is higher in pIC50: 5.00 to 6.00 for the first, over 6.00 for the second.

Compared with CN(C)CCN1CCOc2cc(Nc3nc(N)n(-c4cc5c(nn4)-c4ccccc4CCC5)n3)ccc21 [Compound 121, 1-(6,7-dihydro-5H-benzo[6,7]cyclohepta[1,2-c]pyridazin-3-yl)-N^3-(4-(2-dimethylaminoethyl)-(3,4-dihydro-2H-benzo[b][1,4]oxazin-7-yl))-1H-1,2,4-triazole-3,5-diamine], Nc1nc(Nc2ccc(N3CC[C@H]4CCCC[C@@H]4C3)c(F)c2)nn1-c1cc2c(nn1)-c1ccccc1CCC2 [Compound 127, 1-(6,7-dihydro-5H-benzo[6,7]cyclohepta[1,2-c]pyridazin-3-yl)-N^3-(3-fluoro-4-((4aR,8aS)-decahydroisoquinolin-2-yl)phenyl)-1H-1,2,4-triazole-3,5-diamine] is lower in pIC50: over 6.00 for the first, 5.00 to 6.00 for the second.

Nc1nc(Nc2ccc(N3Cc4ccccc4C3)c(F)c2)nn1-c1cc2c(nn1)-c1ccccc1SCC2 [Compound 123, 1-(6,7-dihydro-5H-benzo[2,3]thiepino[4,5-c]pyridazin-3-yl)-N^3-(3-fluoro-4-(isoindolin-2-yl)phenyl)-1H-1,2,4-triazole-3,5-diamine] and Nc1nc(Nc2ccc(N3CC[C@H]4CCCC[C@@H]4C3)c(F)c2)nn1-c1cc2c(nn1)-c1ccccc1SCC2 [Compound 126, 1-(6,7-dihydro-5H-benzo[2,3]thiepino[4,5-c]pyridazin-3-yl)-N^3-(3-fluoro-4-((4aR,8aS)-decahydroisoquinolin-2-yl)phenyl)-1H-1,2,4-triazole-3,5-diamine] cannot be ordered by pIC50: under 4.70 for the first, under 4.70 for the second.

In the case of Nc1nc(Nc2ccc(N3CCC(CN4CCCC4)CC3)c(F)c2)nn1-c1cc2c(nn1)-c1ccccc1SCC2 [Compound 125, 1-(6,7-dihydro-5H-benzo[2,3]thiepino[4,5-c]pyridazin-3-yl)-N^3-(3-fluoro-4-(4-(pyrrolidinylmethyl)-piperidinyl)phenyl)-1H-1,2,4-triazole-3,5-diamine], the pIC50 was over 6.00.
